Results reported in US12138242B1, “Controlling neuropathic pain” (Frimline Private Limited, priority 2017, dated 2024).

Tested on: Oxaliplatin induced peripheral neuropathy in rat
Test: Cold hyperalgesia method (tail immersion test), oxaliplatin induced peripheral neuropathy
Format: in vivo, Wistar
Conditions: for % (average tail immersion time relative to 20.00 of normal control): Table 2, doses of Table 1 p.o.; for % (average tail immersion time relative to 20.00 of normal control) / Duration of tail immersion, AVG / Duration of tail immersion, Animal Mark 1 / Duration of tail immersion, Animal Mark 2 / Duration of tail immersion, Animal Mark 3 / Duration of tail immersion, Animal Mark 4 / Duration of tail immersion, Animal Mark 5 / Duration of tail immersion, Animal Mark 6: rat; for % (average tail immersion time relative to 20.00 of normal control) / Duration of tail immersion, AVG: n=6; for % (Day 4 relative to 20.00) / Tail immersion time, Day 0 / Tail immersion time, Day 4: Table 3, groups named by human effective dose/day; for Duration of tail immersion, AVG / Duration of tail immersion, Animal Mark 1 / Duration of tail immersion, Animal Mark 2 / Duration of tail immersion, Animal Mark 3 / Duration of tail immersion, Animal Mark 4 / Duration of tail immersion, Animal Mark 5 / Duration of tail immersion, Animal Mark 6: p.o. Day 1-3 at doses of Table 1, 24 hrs after oxaliplatin 12 mg/kg i.p., cut-off 20 seconds
Protocol: Example 21—Animal Study—Screening effect of synergistic combination or composition/formulation comprising PEA and other natural ingredients against Oxaliplatin induced peripheral neuropathy in rat.
• Species: Rat (Rattus norvegicus); • Strain: Wistar; Sex: Male/Female • No. of animals: 54 Animals (n=6 per group) • Animal House conditions: • Lighting: 12/12 hour light-dark cycle • Temperature: 25±2° C. • Relative Humidity: 30 to 70% • Temperature and relative humidity were recorded Thrice daily.
EXPERIMENTAL PROCEDURE: In study fifty-four (54) rats, were divided into total nine (09) groups. Group 1 served as the normal control, Group 2 served as the disease control, Group 3, Group 4 and Group 5 served as component (A, B and C), Group 6, Group 7 and Group 8 served as formulation of test drug, while Group 9 served as the Reference standard group. For these studies, the following combinations were used.
Group-1 received vehicle (0.25% w/v Sodium CMC) orally (p.o.) for three consecutive days (Day 1, 2 & 3). Group-2 to Group-8 received test drugs, while Group 9 received Pregabalin orally (p.o.) on Day-1, Day-2 and Day-3. All treatment groups (Group 2 to 9) were administered with oxaliplatin (12 mg/kg, i.p.) on Day-3 prior to 2 hrs of test drug administration. After 24 hrs of oxaliplatin administration, treated groups as well as the normal control group were assessed using the Cold hyperalgesia method.
Cold Hyperalgesia method (Tail Immersion Test): In the Tail-immersion test, water was maintained at low (0 to 4-C) temperature. The tail of the rat was immersed in cold water and the duration (time in seconds) of tail immersion was recorded, until the tail was withdrawn from water. The cut-off time of 20 seconds was used. The decrease in tail contact time with cold water was indicative pain whereas prolonged contact time was noted as anti-allodynic effect.

Structure (SMILES) | % (average tail immersion time relative to 20.00 of normal control) | % (Day 4 relative to 20.00) | Tail immersion time, Day 0 | Tail immersion time, Day 4 | Duration of tail immersion, AVG | Duration of tail immersion, Animal Mark 1 | Duration of tail immersion, Animal Mark 2 | Duration of tail immersion, Animal Mark 3 | Duration of tail immersion, Animal Mark 4 | Duration of tail immersion, Animal Mark 5 | Duration of tail immersion, Animal Mark 6
O=c1c(-c2ccc(O)cc2)coc2cc(O)ccc12 [Daidzein] | 41.38% | 41.38% | 20.00 | 8.28 | 8.28 s | 8.55 s | 8.00 s | 8.98 s | 7.95 s | 8.12 s | 8.05 s
O=c1c(-c2ccc(O)cc2)coc2cc(O)cc(O)c12 [Genistein] | 37.58% | 37.58% | 20.00 | 7.52 | 7.52 s | 7.68 s | 7.15 s | 7.23 s | 7.68 s | 7.68 s | 7.68 s
CCCCCCCCCCCCCCCC(=O)NCCO [PEA, Palmitoylethanolamide] | 55.73% | 55.73% | 20.00 | 11.15 | 11.15 s | 11.32 s | 11.55 s | 10.85 s | 10.97 s | 11.44 s | 10.75 s
CC(C)C[C@H](CN)CC(=O)O [Pregabalin, reference compound] | 96.27% | 96.27% | 20.00 | 19.25 | 19.25 s | 17.20 s | 20.00 s | 20.00 s | 19.95 s | 18.37 s | 20.00 s
